Laboratory results published in publication PMC6158167 (Nature Communications, 2018).

Columns and labels:
ShHTL7 T190F/C194F = ShHTL7 T190F/C194F (Striga hermonthica, UniProt A0A0M3PNA2, C194F/T190F); assay: ITC binding to ShHTL7 double mutation; conditions: 3 mM KAR1 into 150 μM mutant
Method: Supplementary Figure 8. Activity measurements of ShHTL7 mutants. (a-b), Binding analyses of the T190F/C194F double mutation (a) and L124F/T190F/C194F triple mutation (b) of ShHTL7 with KAR1 by ITC (shown in black). The ITC assays were performed by adding 3 mM KAR1 to 150 μM ShHTL7 mutants in the same manner as in Supplementary Figure 3. Results of titrating buffer to 150 μM ShHTL7 mutants are shown in red. The upper panel for each […]
injection (black squares). (c) YLG hydrolytic activity of ShHTL7 and its mutants. As described

AtHTL–AtMAX2 interaction = AtHTL–AtMAX2 interaction (Arabidopsis thaliana, UniProt Q9SZU7); conditions: pull-down, 50 μM ligand, western blotting
Method: and AtHTL were detected using an anti-GST antibody, as indicated by the black arrows. (b)
1/10, 1/20, 1/50, 1/100, 1/1000) of transformed yeast cells was plated on control medium (SD/-
Leu/-Trp; -LT) and selective medium (SD/-Leu/-Trp/-His/-Ade; -LTHA) in the absence or
(1 picture or pasted object on this page, not shown here)

ShHTL4 = assay: ITC binding to ShHTL4; parameters: species or system Striga hermonthica; conditions: 3 mM KAR1 into 150 μM protein
Method: (§1) The binding assays were performed using a MicroCal iTC200 isothermal titration calorimeter (GE Healthcare). Prior to the ITC experiments, concentrated ShD14, ShHTL1, ShHTL4, and ShHTL7 were exchanged into a buffer consisting of 20 mM HEPES (pH 8.0) and 150 mM NaCl to remove dithiothreitol and were then adjusted to a final concentration of 150 μM. The sample cell was filled with protein solution (204 μL). Nineteen consecutive 2.0-μL aliquots of 3 mM KAR1 (3-methyl-2H-furo [2,3-c] pyran-2-one) were injected into a prepared protein solution at 150 s intervals at 20 °C. The first injection volume was 0.4 μL, and the observed thermal peak was excluded from the data analysis. A negative control was obtained by titrating 3 mM KAR1 into the buffer (20 mM HEPES, pH 8.0, 150 mM NaCl) in the same manner. Data fitting was performed in “one set of sites” mode, and KD values were calculated using Origin software provided by MicroCal.
(§2) Supplementary Figure 3. Binding analyses of ShHTLs and ShD14 with KAR1. The ITC
(§3) assays were performed by adding 3 mM KAR1 to 150 μM ShHTL1 (a), ShHTL4 (b), ShHTL7
(§4) (c), ShD14 (d) and AtHTL (e).
(§5) ShHTL1 and AtHTL were fitted using the MicroCal origin software with the “one binding site”
(§6) model. The ITC assays titrating KAR1 into ShHTL1 and AtHTL were repeated three times
(§7) independently (data not shown).

ShHTL1 = ShHTL1 (Striga hermonthica, UniProt A0A0M4AV81); assay: ITC binding to ShHTL1; conditions: 3 mM KAR1 into 150 μM protein, 20 °C, means ± SD, n = 3, read-out: dissociation constant (KD) of KAR1 to ShHTL1
Method: Binding analyses of ShHTLs and ShD14 with KAR1. The ITC assays were performed by adding 3 mM KAR1 to 150 μM ShHTL1 (a), ShHTL4 (b), ShHTL7
ShHTL1 and AtHTL were fitted using the MicroCal origin software with the “one binding site” model.

ShHTL7 = biological target: T1, ShHTL7 (Striga hermonthica, UniProt A0A0M3PNA2); assay: ITC binding to ShHTL7; conditions: 3 mM KAR1 into 150 μM protein
T1 sequence (A0A0M3PNA2 1-271): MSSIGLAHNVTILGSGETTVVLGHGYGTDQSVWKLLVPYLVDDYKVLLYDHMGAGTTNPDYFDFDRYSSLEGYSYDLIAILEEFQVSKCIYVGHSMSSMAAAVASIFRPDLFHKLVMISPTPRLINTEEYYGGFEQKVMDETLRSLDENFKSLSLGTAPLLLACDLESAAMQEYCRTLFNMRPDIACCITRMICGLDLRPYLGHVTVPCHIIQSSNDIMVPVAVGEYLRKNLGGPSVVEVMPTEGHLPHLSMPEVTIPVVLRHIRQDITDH
Method: as §1, §2, §3, §4, §5, §6, §7

[1] = tested on: ShHTL3–ShMAX2 interaction; assay: Y2H assay ShHTL3-ShMAX2; format: cell-based, Striga hermonthica; conditions: 5 μM ligand
From the text: Full-length sequences of ShD14, ShHTL1, ShHTL3, ShHTL4, ShHTL7, and AtHTL were cloned into the pGBKT7 vector as bait (Clontech), and the coding regions of ShMAX2 and AtMAX2 were cloned into the pGADT7 vector as prey (Clontech). MAX2 was supposed to be unstable without ASK1. Therefore, AtASK1 was cloned into the N terminus of ShMAX2 and AtMAX2 with a 16-residue linker for co-expression. The bait and prey plasmids were co-transformed into the yeast (Saccharomyces cerevisiae) strain Y2HGold (Clontech) by the lithium acetate-mediated method. The presence of both plasmids was confirmed by growth on SD/-Leu/-Trp (-LT) plates. […] The plates were incubated for 5 days at 30 °C.

ShD14 = assay: ITC binding to ShD14; parameters: species or system Striga hermonthica; conditions: 3 mM KAR1 into 150 μM protein
Method: as §1, §2, §3, §4, §5, §6, §7

Sequence of ShHTL7 T190F/C194F (A0A0M3PNA2 whole entry T190F/C194F): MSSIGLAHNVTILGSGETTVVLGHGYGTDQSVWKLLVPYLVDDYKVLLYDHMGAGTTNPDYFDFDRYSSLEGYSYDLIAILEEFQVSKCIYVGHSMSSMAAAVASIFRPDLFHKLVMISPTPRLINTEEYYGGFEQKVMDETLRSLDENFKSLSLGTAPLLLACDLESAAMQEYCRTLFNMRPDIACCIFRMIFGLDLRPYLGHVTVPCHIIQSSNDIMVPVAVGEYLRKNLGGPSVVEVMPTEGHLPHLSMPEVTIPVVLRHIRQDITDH
Sequence of ShHTL1 (A0A0M4AV81 entry or part of it): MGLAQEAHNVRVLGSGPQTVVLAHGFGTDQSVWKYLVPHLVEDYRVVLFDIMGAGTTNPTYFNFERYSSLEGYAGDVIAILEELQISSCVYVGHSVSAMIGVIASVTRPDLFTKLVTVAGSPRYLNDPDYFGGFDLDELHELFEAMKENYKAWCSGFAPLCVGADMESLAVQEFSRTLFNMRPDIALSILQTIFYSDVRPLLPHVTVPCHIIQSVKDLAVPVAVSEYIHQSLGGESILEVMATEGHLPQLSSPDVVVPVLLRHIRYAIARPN
Sequence of AtHTL–AtMAX2 interaction (Q9SZU7 whole entry): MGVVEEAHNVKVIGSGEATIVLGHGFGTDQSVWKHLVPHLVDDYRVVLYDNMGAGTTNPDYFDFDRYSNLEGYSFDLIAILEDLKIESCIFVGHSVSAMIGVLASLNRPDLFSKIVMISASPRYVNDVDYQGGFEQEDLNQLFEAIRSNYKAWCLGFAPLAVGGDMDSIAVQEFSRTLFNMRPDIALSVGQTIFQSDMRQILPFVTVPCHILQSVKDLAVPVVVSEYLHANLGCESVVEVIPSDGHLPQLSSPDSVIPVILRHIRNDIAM

## Cc1c2ccocc-2oc1=O [KAR1, 3-methyl-2H-furo [2,3-c] pyran-2-one]
ShHTL7 T190F/C194F
  KAR1 binding by ShHTL7 T190F/C194F: able to bind to KAR1 weakly
AtHTL–AtMAX2 interaction
  ligand effect on AtHTL-AtMAX2 interaction: did not interact with AtMAX2 in a KAR1-dependent manner
ShHTL4
  KAR1 binding ability of ShHTL4: no significant KAR1 binding ability
ShHTL1
  Kd: 77 ± 12 µM
ShHTL7
  KAR1 binding ability of ShHTL7: no significant KAR1 binding ability
[1]
  ligand-induced ShHTL3-ShMAX2 interaction: failed to interact with ShMAX2 in the presence of KAR1
ShD14
  KAR1 binding ability of ShD14: no significant KAR1 binding ability
